Earlier results on two compounds are cited in patent publication US20090304692A1, “TRIAZINE COMPOUNDS AS PI3 KINASE AND MTOR INHIBITORS” (Wyeth, priority 2008, published 2009).

As usually defined, the IC50 is the concentration at which inhibition is half-maximal.

Data set [1] concerns acute lymphoblastic leukemia xenograft. Conditions: NOS/SCID xenograft mouse model of acute lymphoblastic leukemia; cited from earlier work.
In data set [2] the test system is human tumor xenograft models. Conditions: chronic oral administration, 400 mg/kg, mouse; A549, PC-3, WiDr; cited from earlier work.
Data set [3] addresses mTOR enzymes (Homo sapiens, UniProt P42345). The note with it: read-out: mTOR enzymes IC50; cited from earlier work.

Structures are written as SMILES.

On to `CO[C@H]1C[C@@H]2CC[C@@H](C)[C@@](O)(O2)C(=O)C(=O)N2CCCC[C@H]2C(=O)O[C@H]([C@H](C)C[C@@H]2CC[C@@H](OC(=O)C(C)(CO)CO)[C@H](OC)C2)CC(=O)[C@H](C)/C=C(\C)[C@@H](O)[C@@H](OC)C(=O)[C@H](C)C[C@H](C)/C=C/C=C/C=C/1C` [Torisel], for which the “activity in xenograft mouse model” value in data set [1] is recorded as “active”.
Take `FC(F)c1nc2ccccc2n1-c1nc(N2CCOCC2)nc(N2CCOCC2)n1` [ZSTK474, 2-(2-difluoromethylbenzoimidazol-1-yl)-4,6-dimorpholino-1,3,5-triazine]: the “growth of human xenograft tumors” value in data set [2] was “completely inhibited growth”. The IC50 in data set [3] is more than 10 µM.
